Data as given in ChEMBL document CHEMBL1201862, “PubChem BioAssay data set” (2004).
The source made the active and inactive calls.

Columns and labels:
[1] = cytotoxicity in HPDE-C7 cells, cell-based, fluorescence, HTS (AID 430); type: functional; details: Homo sapiens
[2] = cytotoxicity in KRAS-transformed pancreatic duct cells, primary screen, cell-based, fluorescence, HTS (AID 431); type: functional; details: Homo sapiens;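 further: cell line used: HPDE-C7K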
[3] = target: T1, DNA dC->dU-editing enzyme APOBEC-3A (Homo sapiens, UniProt P31941); assay: APOBEC3A DNA deaminase inhibitors, dose response, biochemical (AID 504722); type: functional
[4] = target: FAD-linked sulfhydryl oxidase ALR (Homo sapiens, UniProt P55789); assay: inhibitors of human ALR sulfhydryl oxidase, dose response, biochemical, H2O2 detection, luminescence, cherry-pick (AID 493248)
[5] = target: Peroxisome proliferator-activated receptor gamma/Nuclear receptor coactivator 1 (Homo sapiens, UniProt P37231); assay: TR-FRET dose response biochemical High Throughput Screening assay for agonists of the steroid receptor coactivator 1 (SRC-1) recruitment by the peroxisome proliferator-activated receptor gamma (PPAR gamma): non-selective agonists. [Related pubchem assays (depositor defined):AID1300, AID1808, AID504735, AID631]; type: protein assay
[6] = target: Peroxisome proliferator-activated receptor gamma/Nuclear receptor coactivator 2 (Homo sapiens, UniProt P37231); assay: (§1) TR-FRET dose response biochemical High Throughput Screening assay for agonists of the steroid receptor coactivator 2 (SRC-2) recruitment by the peroxisome proliferator-activated receptor gamma (PPAR gamma): non-selective agonists. [Related pubchem assays: 1297, 1032 ]; type: functional
[7] = target: Peroxisome proliferator-activated receptor gamma/Nuclear receptor coactivator 3 (Homo sapiens, UniProt P37231); assay: as §1, with “3 (SRC-3)” for “2 (SRC-2)”, “1301 (Confirmation screen.), 1048 (Primary screen.)]” for “1297, 1032 ]”; type: functional
[8] = target: T2, DNA dC->dU-editing enzyme APOBEC-3G (Homo sapiens, UniProt Q9HC16); assay: Dose Response confirmation of small molecule APOBEC3G DNA Deaminase Inhibitors via a fluorescence-based single-stranded DNA deaminase assay. [Related pubchem assays (depositor defined):AID493012, AID493028]; type: functional
[9] = cells
[10] = target: T2, DNA dC->dU-editing enzyme APOBEC-3G; type: functional
[11] = target: T3, Ubiquitin-conjugating enzyme E2 N (Homo sapiens, UniProt P61088); type: functional;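 further: Dose-response confirmation in a TR-FRET assay detecting UBC13-driven polyubiquitin chain formation, inhibition measured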
T3 sequence (P61088 whole entry): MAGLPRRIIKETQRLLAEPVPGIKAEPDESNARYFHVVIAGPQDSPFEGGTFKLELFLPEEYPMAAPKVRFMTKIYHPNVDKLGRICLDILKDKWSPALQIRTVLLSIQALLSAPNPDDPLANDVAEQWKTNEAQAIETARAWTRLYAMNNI

[12] = target: T1, DNA dC->dU-editing enzyme APOBEC-3A; assay: Dose Response confirmation of small molecule APOBEC3A DNA Deaminase Inhibitors via a fluorescence-based single-stranded DNA deaminase assay. [Related pubchem assays (depositor defined):AID493011, AID493024]; type: functional
[13] = target: T4, Aspartyl aminopeptidase (Plasmodium falciparum 3D7, UniProt Q8I2J3); assay: Counterscreen for inhibitors of M1 and M17 aminopeptidases: QFRET-based biochemical high throughput dose response assay for inhibitors of the Plasmodium falciparum M18 Aspartyl Aminopeptidase (PFM18AAP). [Related PubChem assays: 1619 (Screening assay (M17LAP inhibitors).), 1445 (Screening assay (M1AAP inhibitors).)]
T4 sequence (Q8I2J3 whole entry): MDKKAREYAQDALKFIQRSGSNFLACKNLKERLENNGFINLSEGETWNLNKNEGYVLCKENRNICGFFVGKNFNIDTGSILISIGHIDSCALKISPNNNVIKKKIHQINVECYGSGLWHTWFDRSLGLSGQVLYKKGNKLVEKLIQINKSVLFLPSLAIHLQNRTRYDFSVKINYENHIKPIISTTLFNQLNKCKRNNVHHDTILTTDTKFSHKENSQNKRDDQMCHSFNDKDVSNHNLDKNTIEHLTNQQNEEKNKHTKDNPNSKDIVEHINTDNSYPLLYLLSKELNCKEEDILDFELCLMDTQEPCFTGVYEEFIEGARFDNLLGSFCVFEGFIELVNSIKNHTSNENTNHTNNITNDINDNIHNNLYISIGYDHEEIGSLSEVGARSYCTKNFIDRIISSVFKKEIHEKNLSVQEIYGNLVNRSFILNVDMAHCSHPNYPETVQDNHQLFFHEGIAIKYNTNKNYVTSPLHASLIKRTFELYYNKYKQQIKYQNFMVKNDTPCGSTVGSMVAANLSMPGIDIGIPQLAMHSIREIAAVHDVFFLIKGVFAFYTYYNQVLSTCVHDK

[14] = target: T5, Leucine aminopeptidase (Plasmodium falciparum 3D7, UniProt Q8IL11); assay: P. falciparum M17LAP inhibitors, primary screen, biochemical, fluorogenic H-Leu-NHMec substrate, 1536-well (AID 1619); type: functional
T5 sequence (Q8IL11 whole entry): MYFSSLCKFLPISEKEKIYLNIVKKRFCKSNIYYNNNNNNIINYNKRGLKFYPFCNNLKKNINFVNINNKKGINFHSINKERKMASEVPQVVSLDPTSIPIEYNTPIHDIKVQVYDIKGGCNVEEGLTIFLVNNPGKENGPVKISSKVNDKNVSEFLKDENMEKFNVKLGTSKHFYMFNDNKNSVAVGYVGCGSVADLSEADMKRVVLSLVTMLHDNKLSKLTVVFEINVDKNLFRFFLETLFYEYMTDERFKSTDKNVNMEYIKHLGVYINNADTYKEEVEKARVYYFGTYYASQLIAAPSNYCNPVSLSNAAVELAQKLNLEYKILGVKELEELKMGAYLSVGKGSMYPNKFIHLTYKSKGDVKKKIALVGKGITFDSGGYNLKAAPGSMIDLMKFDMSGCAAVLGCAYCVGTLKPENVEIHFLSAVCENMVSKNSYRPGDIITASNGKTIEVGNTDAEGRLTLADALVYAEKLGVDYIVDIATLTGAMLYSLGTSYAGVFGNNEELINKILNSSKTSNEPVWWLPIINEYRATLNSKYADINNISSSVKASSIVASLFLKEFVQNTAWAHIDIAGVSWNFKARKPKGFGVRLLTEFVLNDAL

[15] = target: Procathepsin L (Homo sapiens, UniProt P07711); assay: cathepsin L inhibitors, dose response, counter-screen for M1/M17 aminopeptidase inhibitor project, biochemical, QFRET, 1536-well (AID 2214)
[16] = target: Eukaryotic translation initiation factor 4H (Homo sapiens, UniProt Q15056); assay: human eIF4H binding inhibitors, primary screen, translation initiation inhibitor project, biochemical, uHTS, fluorescence polarization (AID 2012)
[17] = target: Polyadenylate-binding protein 1 (Homo sapiens, UniProt P11940); assay: PABP poly(A) RNA binding inhibitors, primary screen, biochemical, fluorescence polarization, uHTS (AID 2014)
[18] = A High Throughput Confirmatory Assay used to Identify Novel Compounds that Inhibit Mycobacterium Tuberculosis in the absence of Glycerol.; type: functional
[19] = microbe, parasite or virus in culture; type: functional; details: Mycobacterium tuberculosis
[20] = cells; type: functional, cell-based
[21] = cells; type: functional, cell-based; remark: listed apart in the source

T1 sequence (P31941 whole entry): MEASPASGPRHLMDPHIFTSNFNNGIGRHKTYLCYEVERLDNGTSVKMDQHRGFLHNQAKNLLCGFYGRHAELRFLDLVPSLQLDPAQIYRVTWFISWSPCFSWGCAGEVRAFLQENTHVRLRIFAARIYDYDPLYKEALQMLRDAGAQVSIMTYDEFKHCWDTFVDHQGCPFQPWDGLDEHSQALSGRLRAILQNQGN
T2 sequence (Q9HC16 whole entry): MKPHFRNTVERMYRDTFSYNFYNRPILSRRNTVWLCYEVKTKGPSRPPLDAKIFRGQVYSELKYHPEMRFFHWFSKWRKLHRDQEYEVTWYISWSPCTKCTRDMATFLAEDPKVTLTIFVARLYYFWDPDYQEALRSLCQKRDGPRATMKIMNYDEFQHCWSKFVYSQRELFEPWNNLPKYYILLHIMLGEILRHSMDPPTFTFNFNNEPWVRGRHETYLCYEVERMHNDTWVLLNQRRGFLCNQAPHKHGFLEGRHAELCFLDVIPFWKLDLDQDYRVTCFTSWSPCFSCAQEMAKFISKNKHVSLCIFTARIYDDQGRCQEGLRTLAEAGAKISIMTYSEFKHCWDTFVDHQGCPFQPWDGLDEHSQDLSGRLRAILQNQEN
Procathepsin L, sequence (P07711 whole entry): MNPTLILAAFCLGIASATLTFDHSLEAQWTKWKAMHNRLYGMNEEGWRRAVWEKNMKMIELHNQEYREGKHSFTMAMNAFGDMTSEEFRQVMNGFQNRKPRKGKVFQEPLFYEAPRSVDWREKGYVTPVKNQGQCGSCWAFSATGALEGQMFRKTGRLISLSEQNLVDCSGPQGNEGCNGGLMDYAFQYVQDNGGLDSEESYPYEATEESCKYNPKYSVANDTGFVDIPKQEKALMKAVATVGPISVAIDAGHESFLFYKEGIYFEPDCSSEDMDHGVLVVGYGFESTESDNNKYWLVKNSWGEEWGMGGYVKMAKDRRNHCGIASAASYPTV
Peroxisome proliferator-activated receptor gamma/Nuclear receptor coactivator 1, sequence (P37231 whole entry): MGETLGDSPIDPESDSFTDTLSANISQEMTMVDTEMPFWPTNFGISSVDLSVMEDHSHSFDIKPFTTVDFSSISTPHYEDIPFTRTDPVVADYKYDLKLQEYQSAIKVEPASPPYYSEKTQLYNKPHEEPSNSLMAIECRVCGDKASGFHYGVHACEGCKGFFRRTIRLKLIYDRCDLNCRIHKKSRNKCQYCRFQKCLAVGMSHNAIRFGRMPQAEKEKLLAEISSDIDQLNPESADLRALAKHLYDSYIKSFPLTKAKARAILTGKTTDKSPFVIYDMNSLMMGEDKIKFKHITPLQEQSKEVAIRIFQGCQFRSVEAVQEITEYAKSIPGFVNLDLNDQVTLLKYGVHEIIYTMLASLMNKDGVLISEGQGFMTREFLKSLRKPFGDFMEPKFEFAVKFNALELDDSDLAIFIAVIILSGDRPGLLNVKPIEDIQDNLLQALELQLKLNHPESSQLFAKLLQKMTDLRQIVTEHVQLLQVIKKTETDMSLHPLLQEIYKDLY
Peroxisome proliferator-activated receptor gamma/Nuclear receptor coactivator 1, sequence (Q15788 whole entry, further chain): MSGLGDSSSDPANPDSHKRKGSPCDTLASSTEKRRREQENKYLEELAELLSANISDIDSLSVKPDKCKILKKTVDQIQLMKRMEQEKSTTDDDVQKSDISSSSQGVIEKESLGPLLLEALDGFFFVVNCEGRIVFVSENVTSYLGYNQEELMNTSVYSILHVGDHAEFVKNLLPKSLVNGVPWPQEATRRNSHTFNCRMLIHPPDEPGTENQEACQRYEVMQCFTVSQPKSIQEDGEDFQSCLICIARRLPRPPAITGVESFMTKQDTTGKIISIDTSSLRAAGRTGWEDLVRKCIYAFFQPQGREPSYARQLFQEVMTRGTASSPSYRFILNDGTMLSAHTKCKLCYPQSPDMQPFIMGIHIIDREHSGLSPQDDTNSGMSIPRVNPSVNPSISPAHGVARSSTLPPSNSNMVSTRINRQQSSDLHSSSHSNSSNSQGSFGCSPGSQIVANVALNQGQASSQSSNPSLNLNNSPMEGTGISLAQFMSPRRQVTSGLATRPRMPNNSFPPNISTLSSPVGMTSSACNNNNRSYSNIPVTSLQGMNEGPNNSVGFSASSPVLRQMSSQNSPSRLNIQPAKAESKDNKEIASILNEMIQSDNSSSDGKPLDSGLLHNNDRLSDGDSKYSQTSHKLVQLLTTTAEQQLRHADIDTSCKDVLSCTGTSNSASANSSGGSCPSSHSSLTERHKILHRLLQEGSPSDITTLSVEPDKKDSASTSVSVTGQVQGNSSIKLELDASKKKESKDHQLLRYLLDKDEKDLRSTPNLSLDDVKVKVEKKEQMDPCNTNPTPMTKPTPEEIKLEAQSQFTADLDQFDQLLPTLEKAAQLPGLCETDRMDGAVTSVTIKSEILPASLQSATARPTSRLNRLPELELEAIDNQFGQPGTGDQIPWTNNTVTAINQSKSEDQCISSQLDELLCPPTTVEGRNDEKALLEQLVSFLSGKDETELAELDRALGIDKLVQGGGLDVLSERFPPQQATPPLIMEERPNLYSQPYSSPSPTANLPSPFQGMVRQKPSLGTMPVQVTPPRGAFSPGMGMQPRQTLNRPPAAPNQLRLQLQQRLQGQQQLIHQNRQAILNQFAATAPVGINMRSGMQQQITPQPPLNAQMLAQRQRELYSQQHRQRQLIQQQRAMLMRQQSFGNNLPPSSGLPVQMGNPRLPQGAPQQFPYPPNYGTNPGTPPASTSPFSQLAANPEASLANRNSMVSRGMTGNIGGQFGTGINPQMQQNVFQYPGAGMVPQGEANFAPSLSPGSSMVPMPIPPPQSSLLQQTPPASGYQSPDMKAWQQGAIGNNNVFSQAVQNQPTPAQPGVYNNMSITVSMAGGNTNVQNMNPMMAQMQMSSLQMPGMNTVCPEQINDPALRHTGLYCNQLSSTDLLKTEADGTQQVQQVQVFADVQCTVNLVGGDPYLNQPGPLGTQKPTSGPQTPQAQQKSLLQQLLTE
Peroxisome proliferator-activated receptor gamma/Nuclear receptor coactivator 2, sequence (P37231 whole entry): as the sequence (P37231 whole entry) above
Peroxisome proliferator-activated receptor gamma/Nuclear receptor coactivator 2, sequence (Q15596 whole entry, further chain): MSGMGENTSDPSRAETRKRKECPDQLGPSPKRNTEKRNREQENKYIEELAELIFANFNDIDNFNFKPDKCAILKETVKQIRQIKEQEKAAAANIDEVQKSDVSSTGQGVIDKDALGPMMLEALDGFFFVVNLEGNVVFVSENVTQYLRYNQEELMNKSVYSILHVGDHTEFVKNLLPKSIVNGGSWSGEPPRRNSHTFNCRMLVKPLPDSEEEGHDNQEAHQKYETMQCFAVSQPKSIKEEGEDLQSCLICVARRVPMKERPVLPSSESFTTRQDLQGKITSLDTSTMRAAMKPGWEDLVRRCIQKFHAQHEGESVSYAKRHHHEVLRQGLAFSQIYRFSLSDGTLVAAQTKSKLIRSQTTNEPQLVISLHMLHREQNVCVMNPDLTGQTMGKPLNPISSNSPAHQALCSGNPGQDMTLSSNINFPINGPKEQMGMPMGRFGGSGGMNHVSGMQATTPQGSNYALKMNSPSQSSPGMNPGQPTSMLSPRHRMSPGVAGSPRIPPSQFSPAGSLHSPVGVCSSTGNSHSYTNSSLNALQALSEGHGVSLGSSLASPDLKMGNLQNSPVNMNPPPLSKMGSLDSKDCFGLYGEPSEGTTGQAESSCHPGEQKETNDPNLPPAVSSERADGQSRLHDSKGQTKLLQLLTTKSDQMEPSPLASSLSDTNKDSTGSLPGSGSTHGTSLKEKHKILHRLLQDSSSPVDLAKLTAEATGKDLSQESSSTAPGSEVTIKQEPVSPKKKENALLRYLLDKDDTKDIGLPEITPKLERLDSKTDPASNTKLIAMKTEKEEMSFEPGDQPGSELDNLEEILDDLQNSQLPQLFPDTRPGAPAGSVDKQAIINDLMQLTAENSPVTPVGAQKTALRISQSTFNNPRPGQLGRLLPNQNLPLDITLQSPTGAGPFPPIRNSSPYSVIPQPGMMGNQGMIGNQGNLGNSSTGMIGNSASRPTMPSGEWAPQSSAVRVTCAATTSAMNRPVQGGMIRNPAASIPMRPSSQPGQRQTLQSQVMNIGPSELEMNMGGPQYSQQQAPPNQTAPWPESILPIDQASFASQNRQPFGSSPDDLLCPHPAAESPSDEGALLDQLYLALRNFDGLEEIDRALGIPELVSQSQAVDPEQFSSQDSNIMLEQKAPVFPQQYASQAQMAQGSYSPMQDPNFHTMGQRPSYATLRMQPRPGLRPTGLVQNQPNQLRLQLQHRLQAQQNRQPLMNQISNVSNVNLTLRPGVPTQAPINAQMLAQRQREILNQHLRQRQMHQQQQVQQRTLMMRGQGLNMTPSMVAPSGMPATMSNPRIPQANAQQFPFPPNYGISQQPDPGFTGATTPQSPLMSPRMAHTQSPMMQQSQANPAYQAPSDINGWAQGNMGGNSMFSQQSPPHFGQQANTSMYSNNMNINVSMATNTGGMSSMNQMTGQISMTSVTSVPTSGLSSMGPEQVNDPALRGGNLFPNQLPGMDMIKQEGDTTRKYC
FAD-linked sulfhydryl oxidase ALR, sequence (P55789 whole entry): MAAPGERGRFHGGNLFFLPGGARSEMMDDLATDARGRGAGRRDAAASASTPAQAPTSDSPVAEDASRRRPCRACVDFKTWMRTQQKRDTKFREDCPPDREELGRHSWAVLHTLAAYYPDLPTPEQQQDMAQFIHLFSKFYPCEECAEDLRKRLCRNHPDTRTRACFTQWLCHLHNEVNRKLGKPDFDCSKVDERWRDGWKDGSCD

## Cc1ccc(O)c(-c2cc(-c3ccccc3C)[nH]n2)c1
[1]
  EC50: 11 µM (active)
[2]
  EC50: 8.16 µM (active)

## Cc1cccc(-n2c(S)nnc2-c2ccco2)c1
[3]
  IC50: > 100 µM (inactive)
[4]
  AC50: 5.51 µM (active)
[5]
  EC50: > 79.4 µM (inactive)
[6]
  EC50: > 79.4 µM (not active)
[7]
  EC50: > 79.4 µM (not active)
[8]
  IC50: 6.36 µM (active)

## COc1ccc(S(=O)(=O)NCc2ccco2)cc1-c1nnc2c3ccccc3c(C)nn12
[9]
  IC50: 11.2 µM (active)

## Cc1ccc2c(c1)C1C[N+](C)(CC(=O)c3ccc(Cl)cc3Cl)CCC1N2C(=O)c1ccc(F)cc1 (stereo not given)
[10]
  IC50: 2.88 µM (active)
[11]
  IC50: > 20 µM (inactive)
[12]
  IC50: 2.65 µM (active)

## Cc1ccc(-c2cccc(NC(=O)C3C4C=CC(C4)C3C(=O)O)c2)o1 (stereo not given)
[13]
  IC50: > 73.5 µM (not active)
[14]
  IC50: 3.86 µM (active)
[15]
  IC50: > 59.6 µM (not active)

## CN(Cc1cccc(Cl)c1)C(=O)C1CSC2(C)CCC(=O)N12 (stereo not given)
[16]
  IC50: > 100 µM (inactive)
[17]
  IC50: 29.4 µM (active)

## Cc1sc2ncnc(N3CCC(C(=O)N(CC(C)C)c4nc5ccccc5s4)CC3)c2c1C
[18]
  IC50: > 100 µM (active)
[19]
  CC50: > 40 µM (active)

## CCCCCNc1nc(N2CCCC2)c2c(c1C#N)CCN(C)C2
[18]
  IC50: > 100 µM (active)
[19]
  CC50: > 40 µM (active)

## Sc1nnc(-c2ccco2)n1/N=C/c1cccs1
[3]
  IC50: > 100 µM (inactive)
[20]
  EC50: > 350 µM (not active)
[8]
  IC50: 3.28 µM (active)
[21]
  EC50: > 350 µM (not active)
